We go through twelve compounds from PubChem BioAssay (NCI).

Holding throughout (test): inhibition of tumour cell growth, NCI panel, 48 h
In test [1] the test system is HL-60(TB) leukemia.
Test [2] has as its system M14 melanoma.
Test [3] deals with HCC-2998 colon.
Test [4] relates to HT29 colon.
Test [5] has as its system HOP-62 NSCLC.
Test [6] has as its system TK-10 renal.
Test [7] concerns NCI-H23 lung.
For test [8], the system named is RPMI-8226 leukemia.
The test system of test [9] is HCT-15 colon.
Test [10] concerns A498 renal.
In test [11] the test system is IGROV1 ovarian.
Test [12] concerns SK-MEL-28 melanoma.

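Five concentrations, 48 hours, 96-well plates. TGI: total growth inhibition.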

Take `FC(F)(F)c1ccc2c(c1)nc(Cc1ccccc1)n2C[C@@H]1CCCN2CCCCC12` (stereo partly drawn): the TGI in test [1] turned out to be 13.9 µM; in [2], 23 µM; in test [3], 10.6 µM; in test [4], 26.8 µM; in [5], 28.7 µM; in test [6], 31.3 µM. Also, the TGI came to 30.8 µM in test [7]; 82.7 µM in [8]; 30.6 µM in [9]; 29.1 µM in [10]; 28.9 µM in test [11]; 32.3 µM in [12].

In the case of `N#Cc1c(=O)c2cc([N+](=O)[O-])ccc2n2c1[nH]c1ccccc12`, the TGI in test [1] was greater than 100 µM; in [2], greater than 64.6 µM; in test [3], greater than 100 µM; in test [4] it was greater than 87.9 µM; in test [5] it was 97.7 µM; in test [6], greater than 100 µM. Also, the TGI in [7] is greater than 38.4 µM; in [8], greater than 100 µM; in test [9], greater than 61.6 µM; in test [10], greater than 93.1 µM; in test [11], greater than 83.7 µM; in test [12], greater than 64.8 µM.

On to `CCSc1nc2sc(C)c(C)c2c(=O)n1-c1ccc(C(=O)O)cc1`, for which the TGI in [1], in test [2], in test [3], in test [4], in test [5] and in test [6] was greater than 100 µM each time. Also, the TGI in test [7], in [8], in test [9], in [10], in test [11] and in test [12] was greater than 100 µM each time.

`C=CCN1C(=O)/C(=C/c2ccc(C)cc2)N=C1SC/C=C/C`: the TGI in test [1] was 47.9 µM; in test [2], greater than 100 µM; in test [3] it was greater than 100 µM; in [4] it was greater than 100 µM; in [5] it was greater than 100 µM; in [6] it was greater than 100 µM. Also, the TGI in test [7] was greater than 100 µM; in test [8], 36.6 µM; in [9], greater than 100 µM; in test [10], 84.9 µM; in test [11], greater than 100 µM; in test [12] it was greater than 100 µM.

For the compound `O=C(CSc1nnc(Cc2ccccc2)o1)Nc1ccc(Cl)cc1`, the TGI in test [1], in [2], in test [3], in test [4], in [5] and in test [6] was greater than 100 µM each time. Moreover, the TGI in test [7], in [8], in test [9], in test [10], in [11] and in test [12] was greater than 100 µM each time.

Consider `Clc1ccc(OCc2nnc3sc(-c4ccc(-c5ccc(Cl)cc5Cl)o4)nn23)c(Cl)c1`, for which the TGI in test [1] came out at 96.6 µM; in test [2], 76.5 µM; in test [3] it was 36.6 µM; in test [4], 51.1 µM; in test [5], 31.3 µM; in test [6] it was 39.8 µM. In addition, the TGI was 54 µM in test [7]; 57.2 µM in [8]; 49.9 µM in [9]; 33.4 µM in [10]; 35.2 µM in test [11]; 60.9 µM in [12].

Take `CCCCCCOc1ccc(NC2=C(Cl)C(=O)c3cccnc3C2=O)cc1`: the TGI was found to be 3.78 µM in test [1]; 2.87 µM in test [2]; 3.1 µM in [3]; 6.66 µM in test [4]; 5.83 µM in test [5]; 9.49 µM in test [6]. Also, the TGI in test [7] is 3.7 µM; in [8], 2.53 µM; in [9], 3.96 µM; in test [10], greater than 10 µM; in [11] it was 3.62 µM; in test [12], 5.03 µM.

In the case of `Cc1cccc2sc(NC(=O)c3cc([N+](=O)[O-])ccc3Cl)nc12`, the TGI in test [1] was greater than 100 µM; in test [2], 5.32 µM; in test [3], 40.2 µM; in [4], 4.48 µM; in test [5], greater than 73.1 µM; in test [6], 11.4 µM. Besides, the TGI is 19.9 µM in test [7]; greater than 100 µM in test [8]; greater than 29.1 µM in [9]; greater than 100 µM in test [10]; 10.7 µM in test [11]; greater than 94.2 µM in test [12].

As for `c1ccc2nc3[nH]c4ccccc4c3cc2c1`, the TGI was 0.726 µM in [1]; 1.85 µM in test [2]; 2.85 µM in test [3]; 1.75 µM in [4]; 10.7 µM in test [6]; 1.81 µM in test [7]. Besides, the TGI in [8] worked out at 2.53 µM; in [9] it was 1.38 µM; in test [10], 43.1 µM; in test [11], 2.57 µM.

As to `CN(C)C(=O)CC(C(=O)O)c1c[nH]c2ccccc12` (stereo not drawn), the TGI in test [1], in [2], in test [3], in [4], in test [5] and in test [6] was greater than 100 µM throughout. For the same compound, the TGI in [7], in [8], in test [9], in test [10] and in [11] was greater than 100 µM each time.

Regarding `CCc1cccc(C(C)C)c1NC(=O)C(=O)C(C(=O)C(=O)OC)c1nc2ccccc2[nH]c1=O` (stereo not drawn), the TGI in test [1], in [2], in test [3], in [4], in test [6] and in test [7] was greater than 100 µM in each case. Moreover, the TGI in [8], in test [9], in test [10], in [11] and in [12] was greater than 100 µM in each case.

As for `CC1=C(C2=C(C)C(=O)C(=O)c3cc(C)ccc32)c2ccc(C)cc2C(=O)C1=O`, the TGI in [1] is greater than 100 µM; in [2] it was 0.349 µM; in [3], 0.298 µM; in test [4], 0.705 µM; in test [5] it was 2.59 µM; in test [6] it was 1.2 µM. The TGI was 0.442 µM in [7], 0.705 µM in [8], greater than 100 µM in test [9] and 3.25 µM in test [10].
